Strand notation (5' to 3'): a small letter for the sugar, then the base; units joined by * are phosphorothioate-linked, units joined directly phosphodiester-linked; [ ] holds rarer units or linkages, { } end groups; capitals alone tell only the bases. k = constrained ethyl (cEt); [5mC] = 5-methylcytosine; d = 2'-deoxy (DNA)
system: Yap1 mRNA; test: Antisense inhibition of human Yap1 in A-431 cells by cEt gapmers, single dose (Example 3, RTS36584); format: cell-based; details: Table 8; A-431 cells, 5,000 cells per well, free uptake, 2,000 nM, approximately 48 hours; RTS36584; normalized to RIBOGREEN; Yap1 mRNA relative to untreated control cells
Procedure, shortened: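 Single-dose free-uptake screen of 3-10-3 cEt gapmers in A-431 cells at 2,000 nM over about 48 h. Values are % untreated control Yap1 mRNA.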

Row | Substance | YAP1 (% UTC)
1 | 958367 (antisense k[5mC]*kT*kA*dG*d[5mC]*dT*dT*dG*dG*dT*dG*dG*d[5mC]*kA*kG*k[5mC]) [Compound 958367] | 105
2 | 958348 (k[5mC]*kG*kA*dG*dT*d[5mC]*d[5mC]*d[5mC]*d[5mC]*dG*d[5mC]*dG*dG*kA*k[5mC]*kG; antisense) [Compound 958348] | 122
3 | 958376 (antisense k[5mC]*kT*kG*dG*dG*dA*dT*dT*dG*dA*dT*dA*dT*kT*k[5mC]*k[5mC]) [Compound 958376] | 31

same assay, conditions: Table 9; A-431 cells, 5,000 cells per well, free uptake, 2,000 nM, approximately 48 hours; RTS36584; normalized to RIBOGREEN; Yap1 mRNA relative to untreated control cells

Row | Substance | YAP1 (% UTC)
4 | 958546 (k[5mC]*kA*kT*dA*d[5mC]*dT*d[5mC]*dT*dA*dG*dT*dT*dA*k[5mC]*kA*kT; antisense) [Compound 958546] | 6
5 | 958616 (antisense kG*kG*kT*dG*dG*dT*d[5mC]*dT*dT*dG*dT*dT*d[5mC]*kT*kT*kA) [Compound 958616] | 10

same assay, conditions: Table 10; A-431 cells, 5,000 cells per well, free uptake, 2,000 nM oligonucleotide, approx. 48 hours; primer probe set RTS36584; Yap1 mRNA normalized to RIBOGREEN, percent of untreated control

Row | Substance | YAP1 (% UTC)
6 | 958622 (antisense kG*kA*kT*dA*dT*dT*d[5mC]*d[5mC]*dG*d[5mC]*dA*dT*dT*kG*k[5mC]*k[5mC]) [Compound 958622] | 3
7 | 958687 (antisense kA*k[5mC]*kA*d[5mC]*dT*dA*dT*dG*dT*dG*dT*dT*d[5mC]*kT*kG*k[5mC]) [Compound 958687] | 57
8 | 958712 (antisense kT*kT*kA*dT*dA*dT*dA*dG*dG*dT*dT*dA*d[5mC]*kA*kG*kA) [Compound 958712] | 52
9 | 958627 (antisense kT*kT*kG*dG*dG*d[5mC]*dA*dA*dA*dG*dT*dT*d[5mC]*k[5mC]*kT*kA) [Compound 958627] | 61
10 | 958537 (k[5mC]*kA*kG*dG*dG*dT*d[5mC]*dA*dA*dT*dT*dT*dT*k[5mC]*kA*kG; antisense) [Compound 958537] | 3

same assay, conditions: Table 11; A-431 cells, 5,000 cells per well, free uptake, 2,000 nM oligonucleotide, approx. 48 hours; primer probe set RTS36584; Yap1 mRNA normalized to RIBOGREEN, percent of untreated control

Row | Substance | YAP1 (% UTC)
11 | 958673 (kA*kG*kA*dA*d[5mC]*dT*dT*dA*dG*dT*dT*d[5mC]*d[5mC]*k[5mC]*kT*kT; antisense) [Compound 958673] | 30
12 | 958768 (antisense kG*kT*kG*d[5mC]*dA*dA*dG*d[5mC]*dA*dG*dG*dT*dT*k[5mC]*k[5mC]*k[5mC]) [Compound 958768] | 17
13 | 958803 (antisense kG*kA*kT*dA*dA*dT*d[5mC]*dA*dT*d[5mC]*d[5mC]*dT*d[5mC]*kA*kG*k[5mC]) [Compound 958803] | 24
14 | 958773 (antisense kA*kG*k[5mC]*dT*dG*dG*dT*dA*dG*dG*dG*d[5mC]*dA*kA*kG*kA) [Compound 958773] | 43
15 | 958718 (antisense kG*kA*kA*d[5mC]*dA*d[5mC]*dT*dA*dT*dA*dG*d[5mC]*dT*kT*kG*kG) [Compound 958718] | 4

same assay, conditions: Table 12; A-431 cells, 5,000 cells per well, free uptake, 2,000 nM modified oligonucleotide, approx. 48 hours; RTS36584; normalized to RIBOGREEN; Yap1 mRNA relative to untreated control cells

Row | Substance | YAP1 (% UTC)
16 | 958544 (kG*k[5mC]*kT*dA*dA*dA*dT*dT*d[5mC]*dA*dA*d[5mC]*dT*kA*k[5mC]*k[5mC]; antisense) [Compound 958544] | 8
17 | 958669 (kG*k[5mC]*kT*dA*dT*d[5mC]*dT*dT*dT*dG*dG*dA*dT*k[5mC]*k[5mC]*kA; antisense) [Compound 958669] | 76
18 | 958609 (antisense kT*kG*kA*d[5mC]*dA*dA*dG*dT*dG*dT*dG*d[5mC]*dA*kT*kT*kA) [Compound 958609] | 16
19 | 958799 (antisense kA*kT*kT*dA*d[5mC]*dT*d[5mC]*dA*dA*dT*d[5mC]*dA*dT*kG*kG*kT) [Compound 958799] | 2
20 | 958579 (kA*kT*k[5mC]*dT*dT*dA*dA*dT*d[5mC]*dT*dG*dT*dG*kG*k[5mC]*kT; antisense) [Compound 958579] | 4

same assay, conditions: Table 13; A-431 cells, 5,000 cells per well, free uptake, 2,000 nM modified oligonucleotide, approx. 48 hours; RTS36584; normalized to RIBOGREEN; Yap1 mRNA relative to untreated control cells

Row | Substance | YAP1 (% UTC)
21 | 958605 (antisense k[5mC]*kT*k[5mC]*dA*dG*dA*dT*dG*dT*dA*d[5mC]*d[5mC]*dA*kA*k[5mC]*kG) [Compound 958605] | 7
22 | 958645 (kG*k[5mC]*k[5mC]*d[5mC]*dA*dT*dA*dG*dT*dT*dG*dA*d[5mC]*kA*kG*kG; antisense) [Compound 958645] | 54
23 | 958810 (kT*kT*kA*dT*dA*dT*dA*d[5mC]*dG*dG*dG*dA*dA*kA*kA*kT; antisense) [Compound 958810] | 47
24 | 958685 (antisense kA*kG*k[5mC]*dT*dA*dT*dG*dG*dA*dA*dA*dG*dT*kG*kT*k[5mC]) [Compound 958685] | 24
25 | 958520 (k[5mC]*kT*kA*d[5mC]*d[5mC]*dG*dT*dA*dT*dG*d[5mC]*d[5mC]*d[5mC]*kA*kG*kA; antisense) [Compound 958520] | 27
26 | 958470 (antisense kT*kA*kG*dA*dT*d[5mC]*d[5mC]*dT*dT*d[5mC]*dA*d[5mC]*dA*kG*kA*kT) [Compound 958470] | 18

same assay, conditions: Table 26; Yap1 mRNA by 3-10-3 cEt gapmers targeting SEQ ID NO.: 1, and 2; percent of untreated control

Row | Substance | YAP1 (% UTC)
27 | 1075340 (antisense k[5mC]*k[5mC]*k[5mC]*dG*dA*dA*d[5mC]*dA*d[5mC]*d[5mC]*d[5mC]*dA*dA*kA*kA*kA) [compound 1075340] | 103
28 | 1076140 (kA*k[5mC]*kG*dA*dA*dA*dA*dA*dA*dG*d[5mC]*d[5mC]*dA*kA*k[5mC]*kA; antisense) [compound 1076140] | 28

same assay, conditions: Table 27; Yap1 mRNA by 3-10-3 cEt gapmers targeting SEQ ID NO.: 1, and 2; percent of untreated control

Row | Substance | YAP1 (% UTC)
29 | 1075789 (kA*kA*kT*dT*dA*d[5mC]*dA*dA*dG*d[5mC]*dT*dA*dA*kT*kG*k[5mC]; antisense) [compound 1075789] | 79
30 | 1076493 (kT*kG*kA*d[5mC]*dA*dA*dT*dA*dA*dG*dG*dG*dA*k[5mC]*kA*kA; antisense) [compound 1076493] | 34
31 | 1074381 (kA*kG*kT*d[5mC]*dT*dG*dG*dG*dA*dA*dA*d[5mC]*dG*kG*kT*kT; antisense) [compound 1074381] | 16
32 | 1074765 (k[5mC]*kA*kA*dT*dG*d[5mC]*dT*dA*d[5mC]*d[5mC]*d[5mC]*dA*dA*kT*kA*k[5mC]; antisense) [compound 1074765] | 34
33 | 1074285 (antisense kG*k[5mC]*kA*dA*dA*dA*d[5mC]*dG*dA*dG*dG*dG*dT*k[5mC]*kA*kA) [compound 1074285] | 17

same assay, conditions: Table 28; Yap1 mRNA as percent of untreated control; 3-10-3 cEt gapmers targeting SEQ ID NO.: 1, and 2

Row | Substance | YAP1 (% UTC)
34 | 1076142 (kA*kT*kA*d[5mC]*dG*dA*dA*dA*dA*dA*dA*dG*d[5mC]*k[5mC]*kA*kA; antisense) [compound 1076142] | 38

same assay, conditions: Table 29; Yap1 mRNA as percent of untreated control; 3-10-3 cEt gapmers targeting SEQ ID NO.: 1, and 2

Row | Substance | YAP1 (% UTC)
35 | 1076495 (kG*kA*kT*dT*dA*dG*dT*dG*dA*dA*dA*dA*dT*kT*k[5mC]*k[5mC]; antisense) [compound 1076495] | 30
36 | 1074895 (antisense kT*k[5mC]*k[5mC]*dT*dA*dT*dG*d[5mC]*dT*dG*dA*dA*dG*kT*kT*kT) [compound 1074895] | 60
37 | 1075887 (antisense kT*kA*kT*dT*dA*d[5mC]*dT*dT*dG*dA*dT*dT*dG*kA*k[5mC]*kA) [compound 1075887] | 10
38 | 1075311 (antisense kA*kG*kT*dA*dA*dT*dT*dA*dA*dA*d[5mC]*dG*dA*kA*kA*k[5mC]) [compound 1075311] | 100
39 | 1076079 (kA*kA*kG*d[5mC]*dA*dA*dT*dA*dT*dA*dT*dG*dG*k[5mC]*k[5mC]*kT; antisense) [compound 1076079] | 37
40 | 1074287 (antisense kA*k[5mC]*kT*dG*dA*dT*dT*d[5mC]*dT*d[5mC]*dT*dG*dG*kT*kT*k[5mC]) [compound 1074287] | 11

same assay, conditions: Table 34; Yap1 mRNA as percent of untreated control; 3-10-3 cEt gapmers targeting SEQ ID NO: 1 and 2; single dose

Row | Substance | YAP1 (% UTC)
41 | 1075764 (k[5mC]*kT*kT*d[5mC]*dA*dA*dG*dG*dA*dA*dG*dG*dT*kG*k[5mC]*kT; antisense) [compound 1075764] | 103
42 | 1074740 (kG*kG*kA*d[5mC]*dT*d[5mC]*dT*dT*dA*dG*dG*dT*d[5mC]*kT*k[5mC]*k[5mC]; antisense) [compound 1074740] | 75

same assay, conditions: Table 35; Yap1 mRNA as percent of untreated control; 3-10-3 cEt gapmers targeting SEQ ID NO: 1 and 2; single dose

Row | Substance | YAP1 (% UTC)
43 | 1074741 (kA*kA*kG*dG*dA*d[5mC]*dT*d[5mC]*dT*dT*dA*dG*dG*kT*k[5mC]*kT; antisense) [compound 1074741] | 78
44 | 1074197 (antisense kT*kG*k[5mC]*d[5mC]*d[5mC]*dG*dG*dG*dT*d[5mC]*d[5mC]*dG*dG*kA*k[5mC]*kG) [compound 1074197] | 91
45 | 1074933 (antisense kA*kG*kG*dA*dG*dA*d[5mC]*dT*dA*dT*dA*d[5mC]*dA*kA*k[5mC]*kA) [compound 1074933] | 72
46 | 1075541 (kG*k[5mC]*kT*d[5mC]*dA*dA*dA*dA*d[5mC]*dT*dG*dA*d[5mC]*kA*kT*kA; antisense) [compound 1075541] | 47

— patent US11214803B2, “Modulators of YAP1 expression” (Ionis Pharmaceuticals, Inc., priority 2019, dated 2022)
